Reference: paper PMC11908892 (ACS infectious diseases, 2025)
≈ marks a conversion by molar mass, not a printed value. Entries after “also recorded” stand apart in the source; their conditions may differ. Read-outs that look alike come from different tables or passages of the source.

Legend:
[1] = system: S. aureus ATCC 11632; test: Broth microdilution susceptibility testing; format: cell-based; details: Staphylococcus aureus, ATCC11632, read-out: Minimum Inhibitory Concentration (MIC90) S. aureus ATCC 11632 − Thy
[2] = system: E. coli ATCC 25922; test: Broth microdilution susceptibility testing; format: cell-based; details: Escherichia coli, ATCC25922, read-out: Minimum Inhibitory Concentration (MIC90) E. coli ATCC 25922 − Thy
[3] = system: P. aeruginosa PAO1; test: Broth microdilution susceptibility testing; format: cell-based; details: Pseudomonas aeruginosa, PAO1, read-out: Minimum Inhibitory Concentration (MIC90) P. aeruginosa PAO1 − Thy
[4] = target: SaDHFR (Staphylococcus aureus, UniProt P0A017); format: biochemical; details: apparent IC50; purified S. aureus DHFR
[5] = system: M. tuberculosis H37Rv; test: Microplate alamar blue assay; format: cell-based; details: Mycobacterium tuberculosis
[6] = system: M. abscessus L948; test: MABA assay in M. abscessus; format: cell-based; details: for IC50: Mycobacteroides abscessus, L948, read-out: Half-Maximal Inhibitory Concentration (IC50, μM) M. abscessus L948 MABA
[7] = system: E. coli ATCC 25922; test: SYTOX Green uptake assay; format: cell-based; details: any of the concentrations tested; melittin as positive control
[8] = system: E. coli W3310ΔmscL::Kan, E. coli K12 W3310ΔmscS, E. coli W3310; format: cell-based; details: comparison between knock-out and WT strains
[9] = system: Micrococcus luteus; test: Kirby-Bauer agar diffusion assay; format: cell-based
[10] = system: Bacillus subtilis; test: Kirby-Bauer agar diffusion assay; format: cell-based
[11] = system: S. aureus; test: Kirby-Bauer agar diffusion assay; format: cell-based; details: both tested strains of S. aureus
[12] = system: human erythrocytes
[13] = read-out: Minimum Inhibitory Concentration (MIC90, μM) M. tuberculosis H37Rv MABA: 7H12 Media
[14] = read-out: Minimum Inhibitory Concentration (MIC90, μM) M. tuberculosis H37Rv MABA: GAST Media

Sequence of SaDHFR (P0A017 whole entry): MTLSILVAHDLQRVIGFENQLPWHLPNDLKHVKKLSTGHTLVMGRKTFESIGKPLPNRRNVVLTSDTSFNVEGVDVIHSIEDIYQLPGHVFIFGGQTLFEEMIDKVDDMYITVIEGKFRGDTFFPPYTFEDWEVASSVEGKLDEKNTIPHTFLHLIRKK

With `CC1(C)N=C(N)N=C(N)N1c1ccc(Cl)cc1` [CYC, cycloguanil] as the molecule, how does the MIC90 [1] read?
Its MIC90 is > 128 µM.

And the MIC90 [2]?
Its MIC90 is > 128 µM.

What about the MIC90 [3] of the same molecule?
The MIC90 was > 128 µM.

What about the “SaDHFR IC50 (μM ± SD)” value [4] of the same molecule?
The value was “did not inhibit and nf^a”.

And the MIC90 [5, 13]?
The MIC90 was 74.8 µM (≈ 18.8 µg/mL).

What about the MIC90 [5, 14] of the same molecule?
Its MIC90 is > 100 µM.

What about the “Half-Maximal Inhibitory Concentration (IC50, μM) M. abscessus L948 MABA” value ([6]; MABA) of the same molecule?
Its value is “no inhibition”.

And the IC50 [6]?
The IC50 was > 200 µM.

And the “SYTOX Green uptake” value [7]?
Its value is “no uptake”.

And the “MIC values against E. coli ΔmscL, ΔmscS and WT parent strain set” value [8]?
The value was “no significant differences”.

What about the “susceptibility / activity in agar diffusion, M. luteus” value [9] of the same molecule?
The value was “no activity”.

And the “susceptibility / activity in agar diffusion, B. subtilis” value [10]?
The value was “susceptible; also recorded: low activity”.

What about the “activity in agar diffusion, S. aureus” value [11] of the same molecule?
Its value is “no activity”.

What about the hemolysis [12] of the same molecule?
Its hemolysis is “no detectable hemolysis”.

`CC[C@H]1OC(=O)[C@H](C)[C@@H](O[C@H]2C[C@@](C)(OC)[C@@H](O)[C@H](C)O2)[C@H](C)[C@@H](O[C@@H]2O[C@H](C)C[C@H](N(C)C)[C@H]2O)[C@](C)(OC)C[C@@H](C)C(=O)[C@H](C)[C@@H](O)[C@]1(C)O` [Clarithromycin] was tested. Which IC50 [6] did it give?
The IC50 was 15.4 µM.

And the “inhibition plateau in M. abscessus MABA” value ([6]; plateau from 12.5–200 μM)?
The value was ~ 70%.

How did the MIC90 [5, 13] turn out when `NNC(=O)c1ccncc1` [Isoniazid] was run?
The MIC90 was 0.24 µM (≈ 0.0329 µg/mL).

And the MIC90 [5, 14]?
The MIC90 was 0.12 µM (≈ 0.0165 µg/mL).

`COc1c(N2C[C@@H]3CCCN[C@@H]3C2)c(F)cc2c(=O)c(C(=O)O)cn(C3CC3)c12` [Moxifloxacin] was tested. Which MIC90 [5, 13] did it give?
Its MIC90 is 0.43 µM (≈ 0.173 µg/mL).

And the MIC90 [5, 14]?
Its MIC90 is 0.042 µM (≈ 0.0169 µg/mL).

`O=[N+]([O-])c1cn2c(n1)OC[C@@H](OCc1ccc(OC(F)(F)F)cc1)C2` [Pretomanid] was tested. Which MIC90 [5, 13] did it give?
The MIC90 was 0.38 µM (≈ 0.137 µg/mL).

What about the MIC90 [5, 14] of the same molecule?
Its MIC90 is 0.51 µM (≈ 0.183 µg/mL).

`CO[C@H]1/C=C/O[C@@]2(C)Oc3c(C)c(O)c4c(O)c(c(/C=N/N5CCN(C)CC5)c(O)c4c3C2=O)NC(=O)/C(C)=C\C=C\[C@H](C)[C@H](O)[C@@H](C)[C@@H](O)[C@@H](C)[C@H](OC(C)=O)[C@@H]1C` [Rifampicin] was tested. Which MIC90 [5, 13] did it give?
Its MIC90 is 0.05 µM (≈ 0.0411 µg/mL).

What about the MIC90 [5, 14] of the same molecule?
The MIC90 was < 0.016 µM.

Which MIC90 [5, 13] does the source give for `[H]/N=C(/N)N[C@H]1[C@H](O)[C@@H](O)[C@H](O[C@@H]2O[C@@H](C)[C@](O)(C=O)[C@H]2O[C@@H]2O[C@@H](CO)[C@H](O)[C@@H](O)[C@@H]2NC)[C@@H](N/C(N)=N\[H])[C@@H]1O` [Streptomycin] here?
The MIC90 was 0.21 µM (≈ 0.122 µg/mL).

And the MIC90 [5, 14]?
The MIC90 was 0.27 µM (≈ 0.157 µg/mL).

For `COc1cc(Cc2cnc(N)nc2N)cc(OC)c1OC` [TMP, trimethoprim], which “SYTOX Green uptake” value [7] is on record?
Its value is “no uptake”.

And the “MIC values against E. coli ΔmscL, ΔmscS and WT parent strain set” value [8]?
The value was “no significant differences”.
